“And” between values parts separate entries of the source, which are not always exact repeats. Equal entries are not always repeated. Inconclusive results are not listed.
System: CD8F1 mice, subcutaneous mammary adenocarcinoma, T/C%
Assay: NCI In Vivo Anticancer Drug Screen. Data for tumor model Mammary Adenocarcinoma CD8F1 (subcutaneous) in CD8F1
Conditions: higher = larger tumour
Procedure, shortened: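 Antitumor activity is assessed in transplantable-tumor mice by comparing the treated group with a vehicle-treated control group. Survival or tumor size serves as the measure, reported as T divided by C.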

[1] = endpoint: median tumor weight (est.), dose: 25.0 mg/kg/injection, schedule: Q07DX005 (ip), vehicle: saline with Tween-80

## O=C(O)c1ccc(SSc2ccc(C(=O)O)cn2)nc1
endpoint: mean tumor weight, dose: 125.0 mg/kg/injection, schedule: Q07DX004 (ip), vehicle: saline
  T/C: 123 % of control
endpoint: mean tumor weight, dose: 250.0 mg/kg/injection, schedule: Q07DX004 (ip), vehicle: saline
  T/C: 102 % of control
endpoint: mean tumor weight, dose: 500.0 mg/kg/injection, schedule: Q07DX007 (ip), vehicle: saline
  T/C: 99 % of control

## COc1cccc2c1C(=O)c1c(O)c3c(c(O)c1C2=O)C[C@@](O)(/C(C)=N\NC(=O)CO)C[C@@H]3OC1CC(N)C(O)C(C)O1 (stereo not given in full)
endpoint: mean tumor weight, dose: 1.0 mg/kg/injection, schedule: Q07DX006 (ip), vehicle: saline
  T/C: 110 % of control
endpoint: mean tumor weight, dose: 2.0 mg/kg/injection, schedule: Q07DX006 (ip), vehicle: saline
  T/C: 207 % of control
endpoint: mean tumor weight, dose: 4.0 mg/kg/injection, schedule: Q07DX006 (ip), vehicle: saline
  T/C: 64 % of control
endpoint: median tumor weight (est.), dose: 1.0 mg/kg/injection, schedule: Q07DX005 (ip), vehicle: saline
  T/C: 85 % of control
endpoint: median tumor weight (est.), dose: 2.0 mg/kg/injection, schedule: Q07DX005 (ip), vehicle: saline
  T/C: 47 % of control
endpoint: median tumor weight (est.), dose: 4.0 mg/kg/injection, schedule: Q07DX005 (ip), vehicle: saline
  T/C: 104 % of control

## COC(=O)C(Cl)(Cl)N=Nc1c(Cl)cc(Cl)c(C)c1Cl
[1]
  T/C: 104 % of control
endpoint: median tumor weight (est.), dose: 100.0 mg/kg/injection, schedule: Q07DX005 (ip), vehicle: saline with Tween-80
  T/C: 71 % of control
endpoint: median tumor weight (est.), dose: 200.0 mg/kg/injection, schedule: Q07DX005 (ip), vehicle: saline with Tween-80
  T/C: 85 % of control and 110 % of control
endpoint: median tumor weight change, dose: 400.0 mg/kg/injection, schedule: Q01DX001 (ip), vehicle: saline with Tween-80
  T/C: 78 % of control

## COC1C(O)CC(OC2CC(OC3CC(O[C@@H]4C(=O)c5c(cc6cc(OC7CC(OC8CC(O)C(O)C(C)O8)C(O)C(C)O7)c(C)c(O)c6c5O)C[C@H]4[C@H](OC)C(=O)[C@@H](O)[C@@H](C)O)OC(C)C3O)OC(C)C2O)OC1C (stereo not given in full)
endpoint: median tumor weight (est.), dose: 0.18 mg/kg/injection, schedule: Q07DX005 (ip), vehicle: saline
  T/C: 88 % of control
endpoint: median tumor weight (est.), dose: 0.75 mg/kg/injection, schedule: Q07DX005 (ip), vehicle: saline
  T/C: 24 % of control and 42 % of control

## NC(=S)N/N=C/c1ccc(OC(=O)COc2ccccc2)cn1
endpoint: mean tumor weight, dose: 12.5 mg/kg/injection, schedule: Q07DX005 (ip), vehicle: saline with Tween-80
  T/C: 99 % of control
endpoint: mean tumor weight, dose: 12.5 mg/kg/injection, schedule: Q07DX006 (ip), vehicle: saline with Tween-80
  T/C: 96 % of control
endpoint: mean tumor weight, dose: 25.0 mg/kg/injection, schedule: Q07DX005 (ip), vehicle: saline with Tween-80
  T/C: 89 % of control
endpoint: mean tumor weight, dose: 25.0 mg/kg/injection, schedule: Q07DX006 (ip), vehicle: saline with Tween-80
  T/C: 106 % of control
endpoint: mean tumor weight, dose: 50.0 mg/kg/injection, schedule: Q07DX005 (ip), vehicle: saline with Tween-80
  T/C: 86 % of control
endpoint: mean tumor weight, dose: 50.0 mg/kg/injection, schedule: Q07DX006 (ip), vehicle: saline with Tween-80
  T/C: 83 % of control
endpoint: mean tumor weight, dose: 100.0 mg/kg/injection, schedule: Q07DX005 (ip), vehicle: saline with Tween-80
  T/C: 52 % of control
endpoint: mean tumor weight, dose: 100.0 mg/kg/injection, schedule: Q07DX006 (ip), vehicle: saline with Tween-80
  T/C: 101 % of control
endpoint: mean tumor weight, dose: 200.0 mg/kg/injection, schedule: Q07DX005 (ip), vehicle: saline with Tween-80
  T/C: 65 % of control
endpoint: mean tumor weight, dose: 200.0 mg/kg/injection, schedule: Q07DX006 (ip), vehicle: saline with Tween-80
  T/C: 33 % of control

## CCCCNc1ccc2nnc(C)n2n1
endpoint: median tumor weight change, dose: 62.5 mg/kg/injection, schedule: Q01DX001 (ip), vehicle: DMSO
  T/C: 111 % of control
endpoint: median tumor weight change, dose: 125.0 mg/kg/injection, schedule: Q01DX001 (ip), vehicle: DMSO
  T/C: 118 % of control

## COc1cccc2c1C(=O)c1c(O)c3c(c(O)c1C2=O)C[C@@](O)(C(C)=O)C[C@@H]3OC1CC(N(Cc2ccccc2)Cc2ccccc2)C(O)C(C)O1 (stereo not given in full)
endpoint: median tumor weight (est.), dose: 1.56 mg/kg/injection, schedule: Q07DX005 (ip), vehicle: saline with Tween-80
  T/C: 68 % of control
endpoint: median tumor weight (est.), dose: 3.12 mg/kg/injection, schedule: Q07DX005 (ip), vehicle: saline with Tween-80
  T/C: 72 % of control
endpoint: median tumor weight (est.), dose: 6.25 mg/kg/injection, schedule: Q07DX005 (ip), vehicle: saline with Tween-80
  T/C: 75 % of control
endpoint: median tumor weight (est.), dose: 12.5 mg/kg/injection, schedule: Q07DX005 (ip), vehicle: saline with Tween-80
  T/C: 29 % of control
[1]
  T/C: 9 % of control

## Cc1c2cc[n+](C)cc2c(C)c2c1[nH]c1ccc(O)cc12
endpoint: median tumor weight change, dose: 0.62 mg/kg/injection, schedule: Q01DX001 (ip), vehicle: saline
  T/C: 101 % of control
endpoint: median tumor weight change, dose: 1.25 mg/kg/injection, schedule: Q01DX001 (ip), vehicle: saline
  T/C: 67 % of control
endpoint: median tumor weight change, dose: 2.5 mg/kg/injection, schedule: Q01DX001 (ip), vehicle: saline
  T/C: 60 % of control

## O=C(O)CC(=O)O.[NH-]CC[NH-].[Pt+2]
endpoint: median tumor weight (est.), dose: 14.06 mg/kg/injection, schedule: Q07DX005 (ip), vehicle: dextrose
  T/C: 14 % of control
endpoint: median tumor weight (est.), dose: 28.13 mg/kg/injection, schedule: Q07DX005 (ip), vehicle: dextrose
  T/C: 25 % of control
endpoint: median tumor weight (est.), dose: 56.25 mg/kg/injection, schedule: Q07DX005 (ip), vehicle: dextrose
  T/C: 14 % of control
endpoint: median tumor weight (est.), dose: 112.5 mg/kg/injection, schedule: Q07DX005 (ip), vehicle: dextrose
  T/C: 13 % of control
endpoint: median tumor weight (est.), dose: 225.0 mg/kg/injection, schedule: Q07DX005 (ip), vehicle: dextrose
  T/C: 3 % of control
